# Read-outs that look alike come from different tables or passages of the source.
# Legend:
# [1] = system: mixture of Pseudomonas aeruginosa, Klebsiella pneumoniae, Staphylococcus aureus, and Bacillus subtilis; test: Growth inhibition assay; format: cell-based; details: 24 h; for inhibition at 0.19 µg/mL / inhibition at 0.39 µg/mL / inhibition at 0.78 µg/mL / inhibition at 1.56 µg/mL / inhibition at 3.13 µg/mL / inhibition at 6.25 µg/mL / inhibition at 12.5 µg/mL / inhibition at 25 µg/mL: read-out: % Inhibition of growth by DBMAL
# Source text: The growth inhibition assay used in the Examples measures inhibition of growth (or lack thereof) of a microbial consortium. Inhibition of growth can be the result of killing of the cells (so no growth occurs), killing of a significant portion of the populations of cells so that regrowth requires a prolonged time, or inhibition of growth without killing (stasis). Regardless of the mechanism of action, the impact of a biocide (or combination of biocides) can be measured over time on the basis of an increase in the size of the community.
# The assay measures the efficacy of one or more biocides at preventing growth of a consortium of bacteria in a dilute mineral salts medium. The medium contains (in mg/l) the following components: FeCl3.6H2O (1); CaCl2.2H2O (10); MgSO4.7H2O (22.5); (NH4)2SO4 (40); KH2PO4 (10); K2HPO4 (25.5); Yeast Extract (10); and glucose (100). After all components are added to deionized water, the pH of the medium is adjusted to 7.5. Following filter sterilization, aliquots are dispensed in 100 ul quantities to sterile microtiter plate wells. Dilutions of DBMAL and/or “Biocide B” are then added to the microtiter plate. After preparing the combinations of actives as illustrated below, each well is inoculated with 100 μl of a cell suspension containing ca. 1×10^6 cells per milliliter of a mixture of Pseudomonas aeruginosa, Klebsiella pneumoniae, Staphylococcus aureus, and Bacillus subtilis. The final total volume of medium in each well is 300 μl. […] The resulting matrix allows testing of eight concentrations of each active and 64 combinations of actives in the ratios (of actives).
# Controls (not shown) contain the medium with no biocide added. After preparing the combinations of actives as illustrated above, each well is inoculated with 100 μl of a cell suspension containing ca. 1×10^6 cells per milliliter of a mixture of Pseudomonas aeruginosa, Klebsiella pneumoniae, Staphylococcus aureus, and Bacillus subtilis. The final total volume of medium in each well is 300 μl.
# Immediately after the microtiter plates are prepared, the optical density (OD) readings for each well is measured at 580 nm and the plates are then incubated at 37° C. for 24 hr. After the incubation period, the plates are gently agitated before OD580 values are collected. The OD580 values at T0 are subtracted from T24 values to determine the total amount of growth (or lack thereof) that occurs. These values are used to calculate the percent inhibition of growth caused by the presence of each biocide and each of the 64 combinations. A 90% inhibition of growth is used as a threshold for calculating synergy index (SI) values with the following equation: Synergy Index=MDBMAL/CDBMAL+MB/CB
# where • CDBMAL: Concentration of DBMAL required to inhibit ˜90% of bacterial growth when used alone • CB: Concentration of biocide (B) required to inhibit ˜90% of bacterial growth when used alone. • MDBMAL: Concentration of DBMAL required to inhibit ˜90% of bacterial growth when used in combination with biocide (B). • MB: Concentration of biocide (B) required to inhibit ˜90% of bacterial growth when used in combination with DBMAL The SI values are interpreted as follows: • SI<1: Synergistic combination • SI=1: Additive combination • SI>1: Antagonistic combination
# [2] = system: mixture of Pseudomonas aeruginosa ATCC 10145 and Staphylococcus aureus ATCC 6538; test: Kill assay (MBC, synergy index); format: cell-based; details: 37° C., 2 hours
# Description: This assay is used as a preliminary evaluation of synergy between the actives. The procedure is as follows. A mineral salts solution (0.2203 g of CaCl2, 0.1847 g of MgSO4, and 0.2033 g of NaHCO3 in 1 L water, approximately pH 8) is inoculated with equal amounts (about 10^7 CFU/ml) of a mixture of Pseudomonas aeruginosa ATCC 10145 and Staphylococcus aureus ATCC 6538. Aliquots of the cell suspension are then treated with 2,2-dibromomalonamide (“DBMAL”), […], and their combinations at various concentration levels. […] The MBC values are then used to calculate a synergy index (SI) values.
# Summaries of the kill assay results are presented in the individual Examples. In each table, MBC values for each biocide and the blends tested are presented Likewise, the Synergy Index (“SI”) values for the combinations are listed. SI is calculated with the following equation: Synergy Index=Ca/CA+Mb/CB […]
smiles,measurement,setting,value
"NC(=O)C(Br)(Br)C(N)=O [DBMAL, 2,2-dibromomalonamide]",inhibition at 0.19 µg/mL,"[1]; Table 3, DBMAL alone 0.19 mg/l",0%
same,inhibition at 0.39 µg/mL,"[1]; Table 3, DBMAL alone 0.39 mg/l",0%
same,inhibition at 0.78 µg/mL,"[1]; Table 3, DBMAL alone 0.78 mg/l",34%
same,inhibition at 1.56 µg/mL,"[1]; Table 3, DBMAL alone 1.56 mg/l",11%
same,inhibition at 3.13 µg/mL,"[1]; Table 3, DBMAL alone 3.13 mg/l",38%
same,inhibition at 6.25 µg/mL,"[1]; Table 3, DBMAL alone 6.25 mg/l",50%
same,inhibition at 12.5 µg/mL,"[1]; Table 3, DBMAL alone 12.5 mg/l",107%
same,inhibition at 25 µg/mL,"[1]; Table 3, DBMAL alone 25.0 mg/l",105%
same,inhibition at 0.19 µg/mL,"[1]; Table 6, DBMAL alone 0.19 mg/l",0%
same,inhibition at 0.39 µg/mL,"[1]; Table 6, DBMAL alone 0.39 mg/l",0%
same,inhibition at 0.78 µg/mL,"[1]; Table 6, DBMAL alone 0.78 mg/l",18%
same,inhibition at 1.56 µg/mL,"[1]; Table 6, DBMAL alone 1.56 mg/l",34%
same,inhibition at 3.13 µg/mL,"[1]; Table 6, DBMAL alone 3.13 mg/l",50%
same,inhibition at 6.25 µg/mL,"[1]; Table 6, DBMAL alone 6.25 mg/l",44%
same,inhibition at 12.5 µg/mL,"[1]; Table 6, DBMAL alone 12.5 mg/l",97%
same,inhibition at 25 µg/mL,"[1]; Table 6, DBMAL alone 25 mg/l",100%
same,inhibition at 0.19 µg/mL,"[1]; Table 8, DBMAL alone 0.19 mg/l",0%
same,inhibition at 0.39 µg/mL,"[1]; Table 8, DBMAL alone 0.39 mg/l",2%
same,inhibition at 0.78 µg/mL,"[1]; Table 8, DBMAL alone 0.78 mg/l",0%
same,inhibition at 1.56 µg/mL,"[1]; Table 8, DBMAL alone 1.56 mg/l",0%
same,inhibition at 3.13 µg/mL,"[1]; Table 8, DBMAL alone 3.13 mg/l",0%
same,inhibition at 6.25 µg/mL,"[1]; Table 8, DBMAL alone 6.25 mg/l",0%
same,inhibition at 12.5 µg/mL,"[1]; Table 8, DBMAL alone 12.5 mg/l",100%
same,inhibition at 25 µg/mL,"[1]; Table 8, DBMAL alone 25.0 mg/l",100%
same,inhibition at 0.19 µg/mL,"[1]; Table 10, DBMAL alone 0.19 mg/l",7%
same,inhibition at 0.39 µg/mL,"[1]; Table 10, DBMAL alone 0.39 mg/l",0%
same,inhibition at 0.78 µg/mL,"[1]; Table 10, DBMAL alone 0.78 mg/l",0%
same,inhibition at 1.56 µg/mL,"[1]; Table 10, DBMAL alone 1.56 mg/l",0%
same,inhibition at 3.13 µg/mL,"[1]; Table 10, DBMAL alone 3.13 mg/l",0%
same,inhibition at 6.25 µg/mL,"[1]; Table 10, DBMAL alone 6.25 mg/l",52%
same,inhibition at 12.5 µg/mL,"[1]; Table 10, DBMAL alone 12.5 mg/l",99%
same,inhibition at 25 µg/mL,"[1]; Table 10, DBMAL alone 25.0 mg/l",100%
same,inhibition at 0.19 µg/mL,"[1]; Table 12 (4,4-D), DBMAL alone 0.19 mg/l",0%
same,inhibition at 0.39 µg/mL,"[1]; Table 12 (4,4-D), DBMAL alone 0.39 mg/l",6%
same,inhibition at 0.78 µg/mL,"[1]; Table 12 (4,4-D), DBMAL alone 0.78 mg/l",0%
same,inhibition at 1.56 µg/mL,"[1]; Table 12 (4,4-D), DBMAL alone 1.56 mg/l",2%
same,inhibition at 3.13 µg/mL,"[1]; Table 12 (4,4-D), DBMAL alone 3.13 mg/l",0%
same,inhibition at 6.25 µg/mL,"[1]; Table 12 (4,4-D), DBMAL alone 6.25 mg/l",0%
same,inhibition at 12.5 µg/mL,"[1]; Table 12 (4,4-D), DBMAL alone 12.5 mg/l",100%
same,inhibition at 25 µg/mL,"[1]; Table 12 (4,4-D), DBMAL alone 25.0 mg/l",100%
same,inhibition at 0.19 µg/mL,"[1]; Table 12 (TEHT), DBMAL alone 0.19 mg/l",13%
same,inhibition at 0.39 µg/mL,"[1]; Table 12 (TEHT), DBMAL alone 0.39 mg/l",8%
same,inhibition at 0.78 µg/mL,"[1]; Table 12 (TEHT), DBMAL alone 0.78 mg/l",30%
same,inhibition at 1.56 µg/mL,"[1]; Table 12 (TEHT), DBMAL alone 1.56 mg/l",32%
same,inhibition at 3.13 µg/mL,"[1]; Table 12 (TEHT), DBMAL alone 3.13 mg/l",45%
same,inhibition at 6.25 µg/mL,"[1]; Table 12 (TEHT), DBMAL alone 6.25 mg/l",32%
same,inhibition at 12.5 µg/mL,"[1]; Table 12 (TEHT), DBMAL alone 12.5 mg/l",97%
same,inhibition at 25 µg/mL,"[1]; Table 12 (TEHT), DBMAL alone 25.0 mg/l",96%
same,concentration needed to provide at least 90% inhibition of growth,[1]; biocide alone,12.5 mg/L
same,"MBC (minimum biocide concentration needed to completely kill), biocide alone",[2],66.7 µg/mL

# Reference: US8747873B2, “Compositions of dibromomalonamide and their use as biocides” (Dow Global Technologies LLC, priority 2012, dated 2014)
